Counter-ions that a name gives are not always drawn.
Test system: rat jejunum
Assay: In vitro mucosal-to-serosal vancomycin transport, modified Ussing chambers, jejunum
Assay type: in vitro ADME
Details: jejunum
From the text: We investigated regional variation in permeation of vancomycin (VCM) across various segments of rat intestine and colon in vitro by mounting isolated segments of rat intestine and colon between horizontal modified Ussing chambers. The effects of drug concentration and of addition of a p-glycoprotein inhibitor or permeation enhancer(s) as formulation additives on VCM permeation were also studied in vitro using segments of rat jejunum.
Methods: A modified Ussing system (Easy mount Ussing system, Physiological Instruments Inc., CA, Item # EM-CSYS-8) with eight sets of chambers was used for all in vitro studies; each set consisted of two parallel diffusion chambers, a heating block for temperature control, needle valves for gas flow adjustment and gas mixing, and Ag/AgCl voltage and current electrodes for measuring transepithelial voltage and for passing current.
Harvesting of required small intestinal or colon segments of a male rat was performed using experimental procedures described in the literature (Gotoh et al., J Biomol Screen (2005) 10:517-23). The harvested segments of small intestine or colon were mounted on sliders placed between the two horizontal chambers of a modified Ussing system.
VCM was dissolved in HEPES buffer pH 7.4 (Table 1) previously saturated with 100% O2 or HEPES buffer containing additives selected from permeation enhancer(s) and/or an efflux transport inhibitor (Table 2) to obtain predetermined concentrations of drug and additive(s).
Drug transport across epithelial membranes of harvested rat small intestine and colon segments, in mucosal-to-serosal (M-to-S) direction, was studied using modified Ussing Chambers. Aliquots of HEPES buffer (5 ml) were initially added to both the mucosal and serosal chambers and allowed to equilibrate for 20 minutes. The HEPES buffer in the mucosal chamber was replaced by a study sample containing VCM alone or VCM and selected additive(s) in HEPES buffer, e.g., 5 mg/mL of VCM dissolved in HEPES buffer containing 10% w/w Labrasol®. Aliquots of 0.5 mL buffer solutions were removed periodically from serosal chambers, and replaced with equal volumes of fresh warm (37±2° C.) HEPES buffer previously saturated with 100% O2. […]
Changes in transepithelial short-circuit current (in micro-Amps) and membrane resistance (in Ohms) as a function of time were monitored continuously during in vitro studies to serve as indicators of tissue viability and drug permeability, respectively. The buffer samples from the receptor chambers were analyzed for VCM content on a high pressure liquid chromatograph (HPLC; Hewlett Packard Model 1100 series).
The analysis of VCM samples was performed using a reverse phase gradient HPLC method, with a Hypersil BDS C18 column, 5 μm, 150×4.6 mm., mobile phase consisting of 5 mM potassium phosphate monobasic in water (pH 3) as solvent A and acetonitrile as solvent B at a flow rate of 1 ml/min (Farin et al., J Pharm Biomed Anal (1998) 18:367-72). The eluant was monitored by a UV/diode array detector at 280 nm.
To compare data obtained from different in vitro experiments, the apparent permeability coefficients were calculated using the equation: […]
Where dQ/dt is the linear appearance rate of mass in receiver compartment, C0 is the initial solute concentration in donor compartment, and A is the surface area (Luo et al., Drug Metab Dispos (2002) 30:763-70).

Compound: CN[C@H](CC(C)C)C(=O)N[C@H]1C(=O)N[C@@H](CC(N)=O)C(=O)N[C@H]2C(=O)N[C@H]3C(=O)N[C@H](C(=O)N[C@H](C(=O)O)c4cc(O)cc(O)c4-c4cc3ccc4O)[C@H](O)c3ccc(c(Cl)c3)Oc3cc2cc(c3O[C@@H]2O[C@H](CO)[C@@H](O)[C@H](O)[C@H]2O[C@H]2C[C@](C)(N)[C@H](O)[C@H](C)O2)Oc2ccc(cc2Cl)[C@H]1O [Vancomycin hydrochloride]
- Ave. Cumulative Amt VCM Released (50 mg/ml in HEPES buffer without enhancer, 0.5 hr): 0.97 ± 1.37 µg
- Ave. Cumulative Amt VCM Released (50 mg/ml in HEPES buffer without enhancer, 1.0 hr): 7.94 ± 5.19 µg
- Ave. Cumulative Amt VCM Released (50 mg/ml in HEPES buffer without enhancer, 1.5 hr): 22.26 ± 4.61 µg
- Ave. Cumulative Amt VCM Released (50 mg/ml in HEPES buffer without enhancer, 2.0 hr): 46.13 ± 1.25 µg
- Ave. Cumulative Amt VCM Released (50 mg/ml in HEPES buffer without enhancer, 2.5 hr): 69.54 ± 4.20 µg
- Ave. Cumulative Amt VCM Released (5% Gelucire ® 44/14 (w/w), 0.5 hr): 0.40 ± 0.79 µg
- Ave. Cumulative Amt VCM Released (5% Gelucire ® 44/14 (w/w), 1.0 hr): 3.72 ± 0.40 µg
- Ave. Cumulative Amt VCM Released (5% Gelucire ® 44/14 (w/w), 1.5 hr): 6.81 ± 1.07 µg
- Ave. Cumulative Amt VCM Released (5% Gelucire ® 44/14 (w/w), 2.0 hr): 10.87 ± 1.53 µg
- Ave. Cumulative Amt VCM Released (5% Gelucire ® 44/14 (w/w), 2.5 hr): 14.29 ± 2.36 µg
- Ave. Cumulative Amt VCM Released (5% Gelucire ® 44/14 + 5% Labrasol ® (w/w), 0.5 hr): 0.81 ± 1.40 µg
- Ave. Cumulative Amt VCM Released (5% Gelucire ® 44/14 + 5% Labrasol ® (w/w), 1.0 hr): 3.56 ± 0.25 µg
- Ave. Cumulative Amt VCM Released (5% Gelucire ® 44/14 + 5% Labrasol ® (w/w), 1.5 hr): 6.63 ± 1.67 µg
- Ave. Cumulative Amt VCM Released (5% Gelucire ® 44/14 + 5% Labrasol ® (w/w), 2.0 hr): 9.58 ± 1.81 µg
- Ave. Cumulative Amt VCM Released (5% Gelucire ® 44/14 + 5% Labrasol ® (w/w), 2.5 hr): 13.78 ± 5.10 µg
- Ave. Cumulative Amt VCM Released (5% Polysorbate-80 (w/w), 0.5 hr): 0.00 ± 0.00 µg
- Ave. Cumulative Amt VCM Released (5% Polysorbate-80 (w/w), 1.0 hr): 2.33 ± 0.24 µg
- Ave. Cumulative Amt VCM Released (5% Polysorbate-80 (w/w), 1.5 hr): 5.69 ± 1.64 µg
- Ave. Cumulative Amt VCM Released (5% Polysorbate-80 (w/w), 2.0 hr): 10.15 ± 2.82 µg
- Ave. Cumulative Amt VCM Released (5% Polysorbate-80 (w/w), 2.5 hr): 15.99 ± 3.24 µg
- Ave. Cumulative Amt VCM Released (5% Polysorbate-80 + 5% w/w Labrasol ®, 0.5 hr): 0.00 ± 0.00 µg
- Ave. Cumulative Amt VCM Released (5% Polysorbate-80 + 5% w/w Labrasol ®, 1.0 hr): 2.36 ± 0.16 µg
- Ave. Cumulative Amt VCM Released (5% Polysorbate-80 + 5% w/w Labrasol ®, 1.5 hr): 3.85 ± 0.39 µg
- Ave. Cumulative Amt VCM Released (5% Polysorbate-80 + 5% w/w Labrasol ®, 2.0 hr): 6.05 ± 0.80 µg
- Ave. Cumulative Amt VCM Released (5% Polysorbate-80 + 5% w/w Labrasol ®, 2.5 hr): 10.12 ± 1.39 µg
- Ave. Cumulative Amt VCM Released (5% TPGS ® + 5% Labrasol ® (w/w), 0.5 hr): 0.00 ± 0.00 µg
- Ave. Cumulative Amt VCM Released (5% TPGS ® + 5% Labrasol ® (w/w), 1.0 hr): 1.26 ± 1.78 µg
- Ave. Cumulative Amt VCM Released (5% TPGS ® + 5% Labrasol ® (w/w), 1.5 hr): 3.48 ± 1.13 µg
- Ave. Cumulative Amt VCM Released (5% TPGS ® + 5% Labrasol ® (w/w), 2.0 hr): 6.40 ± 2.08 µg
- Ave. Cumulative Amt VCM Released (5% TPGS ® + 5% Labrasol ® (w/w), 2.5 hr): 10.03 ± 3.20 µg
- Papp value compared with VCM alone (5% w/w Labrasol® with 5% w/w Gelucire® 44/14): slightly higher than that of VCM alone
- effect on M-to-S transport of VCM (5% w/w Labrasol® with 5% w/w Polysorbate 80): slightly reduced VCM transport
- effect on M-to-S transport of VCM (5% w/w Labrasol® with 5% w/w Vitamin E TPGS®): slightly reduced VCM transport
- Ave. Cumulative Amt VCM Released (10% Labrasol ® (w/w), 0.5 hr): 3.65 ± 1.22 µg
- Ave. Cumulative Amt VCM Released (10% Labrasol ® (w/w), 1.0 hr): 3.72 ± 2.58 µg
- Ave. Cumulative Amt VCM Released (10% Labrasol ® (w/w), 1.5 hr): 5.52 ± 1.36 µg
- Ave. Cumulative Amt VCM Released (10% Labrasol ® (w/w), 2.0 hr): 7.48 ± 1.11 µg
- Ave. Cumulative Amt VCM Released (10% Labrasol ® (w/w), 2.5 hr): 9.93 ± 1.23 µg
- VCM transport compared with VCM alone or other excipients (10% w/w Labrasol®): lowest
- effect on M-to-S transport of VCM (Gelucire® 44/14 at 5% w/w): enhanced M-to-S transport
- Ave. Cumulative Amt VCM Released (HEPES only, no enhancer (enhancer / bile salt study), 0.5 hr): 0.00 ± 0.00 µg
- Ave. Cumulative Amt VCM Released (HEPES only, no enhancer (enhancer / bile salt study), 1.0 hr): 2.16 ± 1.47 µg
- Ave. Cumulative Amt VCM Released (HEPES only, no enhancer (enhancer / bile salt study), 1.5 hr): 4.13 ± 0.74 µg
- Ave. Cumulative Amt VCM Released (HEPES only, no enhancer (enhancer / bile salt study), 2.0 hr): 8.28 ± 1.80 µg
- Ave. Cumulative Amt VCM Released (HEPES only, no enhancer (enhancer / bile salt study), 2.5 hr): 14.45 ± 3.07 µg
- Ave. Cumulative Amt VCM Released (No SD (sodium decanoate study), 0.5 hr): 0.00 ± 0.00 µg
- Ave. Cumulative Amt VCM Released (No SD (sodium decanoate study), 1.0 hr): 0.00 ± 0.00 µg
- Ave. Cumulative Amt VCM Released (No SD (sodium decanoate study), 1.5 hr): 0.00 ± 0.00 µg
- Ave. Cumulative Amt VCM Released (No SD (sodium decanoate study), 2.0 hr): 1.43 ± 0.10 µg
- Ave. Cumulative Amt VCM Released (No SD (sodium decanoate study), 2.5 hr): 2.15 ± 0.19 µg
- effect on M-to-S transport of VCM (Polysorbate 80 at 5% w/w): enhanced M-to-S transport
